The target of data set [1] is ROCK2 (Homo sapiens (Human), UniProt O75116). Kind of data set: In vitro inhibitory activity against ROCK protein kinase (33P-ATP filter-binding), ROCK2. Type of data set: biochemical. As to conditions: 1 nM ROCK protein kinase, 20 μM Long S6 Kinase substrate peptide. The procedure: (§1) 1. In Vitro Evaluation of the Inhibitory Activity Against ROCK Protein Kinase
(§2) Experimental purpose: to detect the inhibitory IC50 value of the compound against ROCK protein kinase.
(§3) Assay buffer solution: 20 mM 4-hydroxyethylpiperazine ethanesulfonic acid (pH 7.5), 10 mM magnesium chloride, 1 mM ethylene glycol-bis-(2-aminoethyl)tetraacetic acid, 0.02% polyethylene glycol monododecyl ether, 0.02 mg/mL bovine serum albumin, 0.1 mM sodium vanadate, 2 mM dithiothreitol, 1% DMSO.
(§4) The freshly prepared buffer solution was added to ROCK protein kinase substrate (Long S6 Kinase substrate peptide), at a concentration of 20 μM, then 1 nM ROCK protein kinase was added thereto and stirred evenly. Echo550 was used to add a series of DMSO dilutions containing the test compound (starting from 10 μM, serially diluted by 3 times), the solution was pre-incubated at room temperature for 20 minutes, then ^33P-ATP (radiation intensity 10 μCi/μL) was added to initiate the reaction, and the reaction was performed at room temperature for two hours. Then the solution was filtered by P81 ion exchange paper (Whatman #3698-915) and washed with 0.75% phosphoric acid. The radiation intensity was determined by Filter-Binding method.
(§5) The protein kinase inhibitory activity of the compound was expressed as the remaining protein kinase activity relative to the blank substrate (simply DMSO). Prism software package (GraphPad Software, San Diego Calif., USA) was used to calculate IC50 value and the curve.

In data set [2] the target is ROCK1 (Homo sapiens (Human), UniProt Q13464). Kind of data set: In vitro inhibitory activity against ROCK protein kinase (33P-ATP filter-binding), ROCK1. Type of data set: biochemical. The note with it: 1 nM ROCK protein kinase, 20 μM Long S6 Kinase substrate peptide. On the procedure: as §1, §2, §3, §4, §5
A short description of data set [3]: Pharmacokinetics in SD rats (intravenous injection and oral administration). In kind it is in vivo. The note with it: rat, plasma, male SD rats; for clearance / half-life / Vd: intravenous 1 mg/kg; for clearance: read-out: Clearance rate CL; for half-life: read-out: Half-life T1/2 (IV) (converted); for Vd: read-out: Tissue distribution Vdss; for bioavailability: oral 2 mg/kg vs intravenous 1 mg/kg, read-out: Bioavailability F; for AUC(0-t) / Cmax: oral 2 mg/kg; for AUC(0-t): read-out: Area under the drug-time curve AUC0-last PO; for Cmax: read-out: Peak concentration Cmax. On the procedure:
4. Evaluation of the Pharmacokinetics of the Compound
Experimental purpose: to study the pharmacokinetics of the compounds in SD rats in vivo
SD rat (male, 7 to 10 weeks old, WTLH/SLAC)
The rodent pharmacokinetic characteristics of the compounds after intravenous injection and oral administration were tested by standard protocols. In the experiment, the candidate compounds were formulated into 0.2 mg/mL clear solutions and were given to the rats by a single intravenous injection and oral administration. The vehicles of the intravenous injection and oral administration were both 5% DMSO/95% (10% hydroxypropyl P-cyclodextrin) aqueous solution. This project used four male SD rats and two of them were administered by intravenous injection at a dosage of 1 mg/kg, plasma samples were collected at 0.0833, 0.25, 0.5, 1, 2, 4, 6, 8, and 24 hours after administration, the other two rats were administered orally and intragastrically at a dosage of 2 mg/kg, plasma samples were collected at 0.25, 0.5, 1, 2, 3, 4, 6, 8, 24 hours after administration. The whole blood samples were collected within 24 hours and centrifuged at 3000 g for 15 minutes, and the supernatants were separated to give plasma samples. The plasma samples were added with an acetonitrile solution containing internal standard to precipitate protein, mixed thoroughly and centrifuged, and the supernatants were taken for injection. The blood drug concentration was quantitatively analyzed by LC-MS/MS analysis method, and the pharmacokinetic parameters (such as peak concentration (Cmax), clearance rate (CL), half-life (T1/2), […] (Vdss), area under the drug-time curve (AUC0-last), and bioavailability (F), etc.) were calculated.

Eight compounds from patent US11345678B2, “Benzopyrazole compound used as RHO kinase inhibitor” (MEDSHINE DISCOVERY INC., priority 2018, dated 2022) can be followed below.

ROCK2, sequence (O75116 whole entry): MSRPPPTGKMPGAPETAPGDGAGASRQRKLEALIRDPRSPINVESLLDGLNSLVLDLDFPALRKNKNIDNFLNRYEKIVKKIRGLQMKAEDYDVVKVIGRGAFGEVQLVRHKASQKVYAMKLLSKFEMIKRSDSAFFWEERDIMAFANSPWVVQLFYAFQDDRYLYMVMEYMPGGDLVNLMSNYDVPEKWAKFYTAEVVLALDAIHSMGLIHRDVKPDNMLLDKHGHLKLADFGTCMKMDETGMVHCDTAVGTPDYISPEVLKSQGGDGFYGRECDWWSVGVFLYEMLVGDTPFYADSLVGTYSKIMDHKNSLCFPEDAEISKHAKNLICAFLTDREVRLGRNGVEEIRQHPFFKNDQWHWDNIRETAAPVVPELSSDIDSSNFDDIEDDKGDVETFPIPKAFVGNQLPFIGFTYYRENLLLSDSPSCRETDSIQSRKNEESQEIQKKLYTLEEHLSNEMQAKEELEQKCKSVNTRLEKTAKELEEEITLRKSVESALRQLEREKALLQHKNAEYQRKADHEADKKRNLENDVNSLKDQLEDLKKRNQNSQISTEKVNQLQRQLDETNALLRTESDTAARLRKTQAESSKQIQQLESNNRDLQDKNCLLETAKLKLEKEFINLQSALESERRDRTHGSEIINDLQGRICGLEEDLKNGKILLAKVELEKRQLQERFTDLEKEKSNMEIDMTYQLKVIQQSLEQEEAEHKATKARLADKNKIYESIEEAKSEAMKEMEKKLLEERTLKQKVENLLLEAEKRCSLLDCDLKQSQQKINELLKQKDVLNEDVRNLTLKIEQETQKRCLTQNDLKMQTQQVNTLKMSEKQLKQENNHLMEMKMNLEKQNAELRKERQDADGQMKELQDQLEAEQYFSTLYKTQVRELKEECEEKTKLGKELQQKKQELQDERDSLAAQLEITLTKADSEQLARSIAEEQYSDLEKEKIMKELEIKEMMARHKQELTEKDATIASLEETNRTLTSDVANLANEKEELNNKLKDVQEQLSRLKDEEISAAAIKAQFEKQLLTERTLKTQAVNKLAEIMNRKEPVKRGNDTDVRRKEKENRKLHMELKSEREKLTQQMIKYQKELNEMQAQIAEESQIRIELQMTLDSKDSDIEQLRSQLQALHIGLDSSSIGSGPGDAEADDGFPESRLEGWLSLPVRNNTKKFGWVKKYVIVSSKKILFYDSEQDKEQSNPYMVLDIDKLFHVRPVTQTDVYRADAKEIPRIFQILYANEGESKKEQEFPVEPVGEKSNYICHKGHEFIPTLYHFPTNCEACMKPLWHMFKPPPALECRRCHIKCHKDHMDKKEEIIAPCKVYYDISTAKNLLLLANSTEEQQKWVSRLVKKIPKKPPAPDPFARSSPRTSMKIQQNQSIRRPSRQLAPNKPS
ROCK1, sequence (Q13464 whole entry): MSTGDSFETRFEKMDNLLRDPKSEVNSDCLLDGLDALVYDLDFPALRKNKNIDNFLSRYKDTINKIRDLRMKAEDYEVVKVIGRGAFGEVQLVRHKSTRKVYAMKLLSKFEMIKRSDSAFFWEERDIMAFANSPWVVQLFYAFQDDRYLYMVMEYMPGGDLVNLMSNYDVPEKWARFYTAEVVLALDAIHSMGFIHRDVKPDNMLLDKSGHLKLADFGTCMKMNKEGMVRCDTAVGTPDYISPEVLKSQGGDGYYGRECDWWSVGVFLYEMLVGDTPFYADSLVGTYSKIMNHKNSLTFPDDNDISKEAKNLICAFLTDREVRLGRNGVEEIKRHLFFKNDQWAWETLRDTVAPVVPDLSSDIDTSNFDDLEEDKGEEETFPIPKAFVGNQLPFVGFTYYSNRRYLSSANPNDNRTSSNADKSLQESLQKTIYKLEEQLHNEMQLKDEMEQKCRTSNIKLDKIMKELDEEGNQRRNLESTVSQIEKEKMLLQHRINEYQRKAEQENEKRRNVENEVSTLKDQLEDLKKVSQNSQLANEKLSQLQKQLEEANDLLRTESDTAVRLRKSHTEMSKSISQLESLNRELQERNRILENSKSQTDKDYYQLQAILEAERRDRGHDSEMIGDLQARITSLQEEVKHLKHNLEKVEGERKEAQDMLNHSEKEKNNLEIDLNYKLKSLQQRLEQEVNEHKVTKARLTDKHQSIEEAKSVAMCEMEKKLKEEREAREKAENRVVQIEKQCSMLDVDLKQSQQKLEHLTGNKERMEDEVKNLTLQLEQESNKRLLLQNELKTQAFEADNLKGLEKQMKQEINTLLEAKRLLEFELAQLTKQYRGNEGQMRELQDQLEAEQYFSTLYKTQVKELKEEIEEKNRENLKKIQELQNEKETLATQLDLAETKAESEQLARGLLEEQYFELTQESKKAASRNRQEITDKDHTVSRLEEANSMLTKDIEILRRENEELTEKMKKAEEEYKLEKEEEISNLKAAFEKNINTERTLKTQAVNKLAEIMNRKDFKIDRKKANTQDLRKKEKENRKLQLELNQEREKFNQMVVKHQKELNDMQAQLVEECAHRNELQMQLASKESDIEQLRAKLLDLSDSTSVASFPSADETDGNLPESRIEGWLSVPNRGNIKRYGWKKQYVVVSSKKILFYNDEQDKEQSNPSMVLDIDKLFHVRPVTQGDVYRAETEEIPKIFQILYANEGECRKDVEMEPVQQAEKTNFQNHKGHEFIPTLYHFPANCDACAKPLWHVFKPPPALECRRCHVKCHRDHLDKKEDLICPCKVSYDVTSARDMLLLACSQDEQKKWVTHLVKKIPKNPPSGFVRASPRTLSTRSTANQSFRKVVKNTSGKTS

Usually IC50 stands for the concentration needed to halve the response being measured. Lower therefore signals inhibition by little substance. For orientation: bioavailability means the share of a dose that reaches the circulation, judged against a reference dose that is usually intravenous. In the case of `Cc1n[nH]c2ccc(-c3cccc(C(=O)NC(CN)c4cccc(F)c4F)c3)cc12` (stereo not shown) [Compound 61], in data set [1], the IC50 was 23 nM. In data set [2], this compound came in with an IC50 of 253 nM. Moreover, in data set [3], the clearance turned out to be 30.8 mL/min/kg, the half-life is 2.37 h, the Vd was found to be 4.72 L/kg and the bioavailability worked out at 11%. Further, in data set [3], the AUC(0-t) stood at 0.266 µM·h and the Cmax came out at 55.6 nM.
For the compound `CNCC(NC(=O)c1cc(-c2ccc3[nH]nc(C)c3c2)ccn1)c1cccc(OC)c1` (stereo not shown) [Compound 66], the IC50 in data set [1] is 11 nM. Moreover, the IC50 in data set [2] is 193 nM. In data set [3], the clearance came out at 50.8 mL/min/kg, the half-life is 2.74 h, the Vd is 10.5 L/kg and the bioavailability is 20.9%. Moreover, in data set [3], the AUC(0-t) came to 0.306 µM·h and the Cmax came out at 50.7 nM.
Consider `COc1cccc(C(NC(=O)c2cccc(-c3ccc4[nH]nc(C)c4c3)c2)C(C)(C)N)c1` (stereo not shown) [Compound 64], for which the IC50 in data set [1] came out at 46 nM. This compound also had an IC50 in data set [2] of 798 nM. In addition, in data set [3], the clearance stood at 88.3 mL/min/kg, the half-life was 2.83 h, the Vd amounted to 16.4 L/kg and the bioavailability worked out at 12%. Also, in data set [3], the AUC(0-t) was determined as 0.1 µM·h and the Cmax is 17 nM.
In turn, `COc1cccc(C(CN)NC(=O)c2cc(-c3ccc4[nH]nc(C)c4c3)ccc2OC(F)(F)F)c1` (stereo not shown) [Compound 49] came in with an IC50 in data set [1] of 31 nM. This compound yielded an IC50 in data set [2] of 1200 nM. Also, in data set [3], the clearance worked out at 23.1 mL/min/kg, the half-life was 4.82 h, the Vd was 8.31 L/kg and the bioavailability stood at 60%. For the same compound, in data set [3], the AUC(0-t) is 1.33 µM·h and the Cmax worked out at 157 nM.
Compound `COc1cccc(C(CO)NC(=O)c2cccc(-c3ccc4[nH]nc(C)c4c3)c2)c1` (stereo not shown) [Compound 25] returned an IC50 in data set [1] of 5 nM. In data set [2], this compound gave an IC50 of 89 nM. In data set [3], the clearance was found to be 6.24 mL/min/kg, the half-life was 2.91 h, the Vd stood at 1.15 L/kg and the bioavailability amounted to 45%. For the same compound, in data set [3], the AUC(0-t) was found to be 6.3 µM·h and the Cmax amounted to 1180 nM.
Compound `Cc1cccc(C(CN)NC(=O)c2cccc(-c3ccc4[nH]nc(C)c4c3)c2)c1` (stereo not shown) [Compound 35] returned a 50% inhibitory concentration (IC50) in data set [1] of 13 nM. Besides, the IC50 in data set [2] came out at 317 nM. In data set [3], the clearance turned out to be 25 mL/min/kg, the half-life was 3.83 h, the Vd is 6.78 L/kg and the bioavailability was found to be 21%. In data set [3], the AUC(0-t) amounted to 0.734 µM·h and the Cmax amounted to 117 nM.
With `COc1cccc(C(CN(C)C)NC(=O)c2cccc(-c3ccc4[nH]nc(C)c4c3)c2)c1` (stereo not shown) [Compound 36], in data set [1], the IC50 was 10 nM. Also, the half-inhibitory concentration (IC50) in data set [2] amounted to 73 nM. Further, in data set [3], the clearance was found to be 50.9 mL/min/kg, the half-life is 1.33 h, the Vd amounted to 5.05 L/kg and the bioavailability is 10%. Moreover, in data set [3], the AUC(0-t) came to 0.156 µM·h and the Cmax was determined as 36.4 nM.
As for `COc1cccc(C(CNS(C)(=O)=O)NC(=O)c2cccc(-c3ccc4[nH]nc(C)c4c3)c2)c1` (stereo not shown) [Compound 72], the IC50 in data set [1] is 12 nM. This compound yielded a half-maximal inhibitory concentration (IC50) in data set [2] of 587 nM. Moreover, in data set [3], the clearance worked out at 55.7 mL/min/kg, the half-life is 0.62 h, the Vd was determined as 1.79 L/kg and the bioavailability stood at 11%. Besides, in data set [3], the AUC(0-t) worked out at 0.148 µM·h and the Cmax was determined as 99.4 nM.
